According to US20080242663A1, “NOVEL PYRIMIDINE DERIVATIVES 698” (ASTRAZENECA AB, priority 2007, published 2008):

target: T1, recombinant EphB4 (Homo sapiens, UniProt P54760); assay: In vitro EphB4 enzyme assay (Alphascreen); format: biochemical
T1 construct: amino acids 563-987; Swiss-Prot Acc; No. P54760; purchased ProQinase GmbH 0178-0000-3
T1 sequence (P54760 563-987): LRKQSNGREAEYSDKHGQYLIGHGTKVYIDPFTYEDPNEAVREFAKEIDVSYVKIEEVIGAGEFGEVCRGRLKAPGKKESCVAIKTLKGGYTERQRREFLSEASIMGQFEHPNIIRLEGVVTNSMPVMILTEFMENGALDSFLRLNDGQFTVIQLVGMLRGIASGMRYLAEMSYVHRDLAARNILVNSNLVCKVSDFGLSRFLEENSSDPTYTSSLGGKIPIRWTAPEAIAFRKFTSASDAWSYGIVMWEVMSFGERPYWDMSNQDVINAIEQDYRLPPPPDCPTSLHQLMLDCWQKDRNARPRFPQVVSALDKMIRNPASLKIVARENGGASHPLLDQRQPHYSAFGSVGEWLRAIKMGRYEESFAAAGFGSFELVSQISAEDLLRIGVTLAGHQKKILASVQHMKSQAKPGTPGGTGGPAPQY
Protocol: This assay detects inhibitors of EphB4-mediated phosphorylation of a polypeptide substrate using Alphascreen™ luminescence detection technology. Briefly, recombinant EphB4 was incubated with a biotinylated-polypeptide substrate (biotin-poly-GAT) in presence of magnesium-ATP. The reaction was stopped by addition of EDTA, together with streptavidin-coated donor beads which bind the biotin-substrate containing any phosphorylated tyrosine residues. Anti-phosphotyrosine antibodies present on acceptor beads bind to phosphorylated substrate, thus bringing the donor & acceptor beads into close proximity. Subsequent excitation of the donor beads at 680 nm generated singlet oxygen species that interact with a chemiluminescer on the acceptor beads, leading to light emission at 520-620 nm. The signal intensity is directly proportional to the level of substrate phosphorylation and thus inhibition is measured by a decrease in signal.
Assay plates were then incubated at room temperature for 1 hr. […] The plates were sealed under natural lighting conditions, wrapped in aluminium foil and incubated in the dark for a further 20 hrs.
The resulting assay signal was determined on the Perkin Elmer EnVision plate reader. The minimum value was subtracted from all values, and the signal plotted against compound concentration to generate IC50 data.

Row | Structure (SMILES) | IC50 [nM]
1 | CN(c1ccc(C#N)cc1)c1ccnc(Nc2cc(N3CCOCC3)cc(N3CCOCC3)c2)n1 [Example 10.17, 4-[[2-[(3,5-dimorpholin-4-ylphenyl)amino]pyrim-idin-4-yl]-methyl-amino]benzonitrile] | 9780
2 | COc1ccc(NC(C)=O)c(N(C)c2ccnc(Nc3cc(N4CCOCC4)cc(N4CCOCC4)c3)n2)c1 [Example 13.1, N-[2-[[2-[(3,5-dimorpholin-4-ylphenyl)amino]pyrimidin-4-yl]-methyl-amino]-4-methoxy-phenyl]acetamide] | 470
3 | CN1CCN(c2cc(Nc3nccc(N(C)c4cccc(Cl)c4)n3)cc(N3CCOCC3)c2)CC1 [Example 24, N4-(3-chlorophenyl)-N4-methyl-N2-[3-(4-methylpiperazin-1-yl)-5-morpholin-4-ylphenyl]pyrimidine-2,4-diamine] | 0.581
4 | C[C@@H](CO)NC(=O)c1cc(Nc2nccc(N(C)c3cccc(Cl)c3)n2)cc(N2CCOCC2)c1 [Example 19.21, 3-[[4-[(3-chlorophenyl)-methyl-amino]pyrimidin-2-yl]amino]-N-[(2S)-1-hydroxypropan-2-yl]-5-morpholin-4-yl-benzamide] | 527
5 | CN(c1cccc(Cl)c1)c1ccnc(Nc2cc(C(=O)N3CCC(O)CC3)cc(N3CCOCC3)c2)n1 [Example 19.12, [3-[[4-[(3-chlorophenyl)-methyl-amino]pyrimidin-2-yl]amino]-5-morpholin-4-yl-phenyl]-(4-hydroxy-1-piperidyl) methanone] | 234
6 | CC(C)CNC(=O)c1cc(Nc2nccc(N(C)c3cccc(Cl)c3)n2)cc(N2CCOCC2)c1 [Example 19.17, 3-[[4-[(3-chlorophenyl)-methyl-amino]pyrimidin-2-yl]amino]-N-(2-methylpropyl)-5-morphohn-4-yl-benzamide] | 2830
7 | Cc1ccc(CO)cc1N(C)c1ccnc(Nc2cc(OC3CCC3)cc(N3CCOCC3)c2)n1 [Example 17.5, [3-[[2-[(3-cyclobutyloxy-5-morpholin-4-yl-phenyl)amino]pyrimidin-4-yl]-methyl-amino]-4-methyl-phenyl]methanol] | 951
8 | COc1cc(N(C)c2ccnc(Nc3cc(N4CCOCC4)cc(N4CCOCC4)c3)n2)ccc1C#N [Example 15.2, 4-[[2-[(3,5-dimorpholin-4-ylphenyl)amino]pyrimidin-4-yl]-methyl-amino]-2-methoxy-benzonitrile] | 206
9 | CCN(C)C(=O)c1cc(Nc2nccc(N(C)c3cccc(Cl)c3)n2)cc(N2CCOCC2)c1 [Example 19.7, 3-[[4-[(3-chlorophenyl)-methyl-amino]pyrimidin-2-yl]amino]-N-ethyl-N-methyl-5-morpholin-4-yl-benzamide] | 648
10 | CN(c1ccnc(Nc2cc(N3CCOCC3)cc(N3CCSCC3)c2)n1)c1ccc(F)c(Cl)c1F [Example 1, N′-(3-chloro-2,4-difluoro-phenyl)-N′-methyl-N-(3-morpholin-4-yl-5-thiomorpholin-4-yl-phenyl)pyrimidine-2,4-diamine] | 763
11 | COc1cc(OC)cc(N(C)c2ccnc(Nc3cc(N4CCOCC4)cc(N4CCOCC4)c3)n2)c1 [Example 15.5, N′-(3,5-dimethoxyphenyl)-N-(3,5-dimorpholin-4-ylphenyl)-N′-methyl-pyrimidine-2,4-diamine] | 1120
12 | CCN(C)C(=O)c1cc(Nc2nccc(N(C)c3cc(CO)ccc3C)n2)cc(N2CCOCC2)c1 [Example 18.4, N-ethyl-3-[[4-[[5-(hydroxymethyl)-2-methyl-phenyl]-methyl-amino]pyrimidin-2-yl]amino]-N-methyl-5-morpholin-4-yl-benzamide] | 75.3
13 | COc1ccc(C)c(N(CCO)c2ccnc(Nc3cc(N4CCOCC4)cc(N4CCOCC4)c3)n2)c1 [Example 22.4, 2-[[2-[(3,5-dimorpholin-4-ylphenyl)amino]pyrimidin-4-yl]-(5-methoxy-2-methyl-phenyl)amino]ethanol] | 802
14 | Cc1cc(C)cc(N(C)c2ccnc(Nc3cc(N4CCOCC4)cc(N4CCOCC4)c3)n2)c1 [Example 10.8, N′-(3,5-dimethylphenyl)-N-(3,5-dimorpholin-4-ylphenyl)-N′-methyl-pyrimidine-2,4-diamine] | 1100
15 | CN(c1ccnc(Nc2cc(N3CCOCC3)cc(N3CCOCC3)c2)n1)c1cc(Cl)ccc1CO [Example 25.8, (4-chloro-2-((2-(3,5-dimorpholinophenylamino)pyrimidin-4-yl)(methyl)amino)phenyl)methanol] | 6.39
16 | CN1CCN(c2cc(Nc3nccc(N(C)c4ccc(F)c(Cl)c4F)n3)cc(S(C)(=O)=O)c2)CC1 [Example 3, N′-(3-chloro-2,4-difluoro-phenyl)-N′-methyl-N-[3-(4-methylpiperazin-1-yl)-5-methylsulfonyl-phenyl]pyrimidine-2,4-diamine] | 65.1
17 | COc1ccc(C)c(N(C)c2ccnc(Nc3cc(N4CCOCC4)cc(N4CCOC[C@@H]4C)c3)n2)c1 [Example 12.8, (S)-N4-(5-methoxy-2-methylphenyl)-N4-methyl-N2-(3-(3-methylmorpholino)-5-morpholinophenyl)pyrimidine2,4-diamine] | 5.82
18 | Cc1ccc(CO)cc1N(CCO)c1ccnc(Nc2cc(N3CCOCC3)cc(N3CCOCC3)c2)n1 [Example 21.3] | 25
19 | COc1cccc(C)c1N(C)c1ccnc(Nc2cc(N3CCOCC3)cc(N3CCOCC3)c2)n1 [Example 25.2, N2-(3,5-dimorpholinophenyl)-N4-(2-methoxy-6-methylphenyl)-N4-methylpyrimidine-2,4-diamine] | 76.9
20 | Cc1ccc(CO)cc1N(CC(C)C)c1ccnc(Nc2cc(N3CCOCC3)cc(S(C)(=O)=O)c2)n1 [Example 8.3, [4-methyl-3-[2-methylpropyl-[2-[(3-methylsulfonyl-5-morpholin-4-yl-phenyl)amino]pyrimidin-4-yl]amino]phenyl]methanol] | 917
21 | Cc1ccc(CO)cc1N(C)c1ccnc(Nc2cc(C(=O)N(C)C(C)C)cc(N3CCOCC3)c2)n1 [Example 18.6, 3-[[4-[[5-(hydroxymethyl)-2-methyl-phenyl]-methyl-amino]pyrimidin-2-yl]amino]-N-methyl-5-morpholin-4-yl-N-propan-2-yl-benzamide] | 342
22 | Cc1ccc(CO)cc1N(C)c1ccnc(Nc2cc(C(=O)NCC3CC3)cc(N3CCOCC3)c2)n1 [Example 18.5, N-(cyclopropylmethyl)-3-[[4-[[5-(hydroxymethyl)-2-methyl-phenyl]-methyl-amino]pyrimidin-2-yl]amino]-5-morpholin-4-yl-benzamide] | 477
23 | CN(c1ccnc(Nc2cc(N3CCOCC3)cc(N3CCOCC3)c2)n1)c1cccc(CO)c1F [Example 25.4, (3-((2-(3,5-dimorpholinophenylamino)pyrimidin-4-yl)(methyl)amino)-2-fluorophenyl)methanol] | 11.6
24 | CN(CCCO)C(=O)c1cc(Nc2nccc(N(C)c3cccc(Cl)c3)n2)cc(N2CCOCC2)c1 [Example 19.4, 3-[[4-[(3-chlorophenyl)-methyl-amino]pyrimidin-2-yl]amino]-N-(3-hydroxypropyl)-N-methyl-5-morpholin-4-yl-benzamide] | 295
25 | Cc1ccc(N(C)c2ccnc(Nc3cc(N4CCOCC4)cc(N4CCOCC4)c3)n2)cc1 [Example 10.1, N-(3,5-dimorpholin-4-ylphenyl)-N′-methyl-N′-(4-methylphenyl)pyrimidine-2,4-diamine] | 402
